From patent US7790698B2, “Use of adenosine receptor agonists in therapy” (Cambridge Biotechnology Ltd, priority 2003, dated 2010)
Values after ≈ are worked out from the molar mass of the structure shown.

Key:
[1] = tested on: mean blood pressure and heart rate; settings: rats, 20 mg/kg po; cited from earlier work
adenosine A2A receptor = settings: cited from earlier work
[2] = plasma concentration over time after administration (Example 3, FIG. 3); assay type: in vivo, rat
Experimental: The EC50 value of 2-methoxyadenosine at the adenosine A2A receptor is 900 ng/ml (3 μM). […] It can be seen that the plasma concentration remains above 2% of the EC50 value for more than 3 hours. Anti-inflammatory effects have been observed (without blood pressure changes) when the peak and maintained plasma concentrations are as low […] (i.e. 2% of the EC50 value determined in vitro).

[3] = tested on: carageenan-induced oedema in a rat paw; settings: rats, 20 mg/kg po; cited from earlier work
[4] = tested on: blood pressure and heart rate; test: radiotelemetry of blood pressure and heart rate (Example 2, FIG. 2); assay type: in vivo, rat; settings: 0.6 mg/kg p.o., rats
Experimental: FIG. 2: An implantable radiotelemetry device was placed in the abdominal cavity of 6 rats per group. The pressure catheter of the device was inserted in the abdominal aorta and two electrodes tunnelised under the skin in a lead II position (left side of abdominal cavity/right shoulder). Individual rats were placed in their own cage on a radioreceptor (DSI) for data acquisition. The effect of 0.6 mg/kg 2-methoxyadenosine or vehicle (p.o.) on blood pressure was then assessed. A: blood pressure; B: heart rate.

[5] = tested on: carrageenan (CGN) induced inflammation; test: carrageenan induced inflammation, paw volume by plethysomometry (Example 1, FIG. 1); assay type: in vivo
Experimental: Carrageenan (2%, 10 microlitres) was administered into the right hind paw, and the paw volume assessed by plethysomometry. 2-methoxyadenosine was administered at the same time as carrageenan. 2-methoxyadenosine was as effective as indomethacin (Indo, 3 mg/kg p.o.).

SMILES: COc1nc(N)c2ncn([C@@H]3O[C@H](CO)[C@@H](O)[C@H]3O)c2n1 [2-methoxyadenosine]
- reduction in heart rate [1]: 25%
- reduction in mean blood pressure [1]: 41%
- EC50 (adenosine A2A receptor; Daly et al. 1993): 3 µM
- EC50 value at the adenosine A2A receptor (adenosine A2A receptor; determined in vitro): 0.9 µg/mL (≈ 3.03 µM)
- time the plasma concentration remains above 2% of the EC50 value ([2]; 0.6 mg/kg to a rat): more than 3 hours
- peak and maintained plasma concentration at which anti-inflammatory effects were observed without blood pressure changes ([2]; as low as, stated as 2% of the EC50 value): 8 ng/mL
- effect on blood pressure when the peak plasma concentration reaches the EC50 value ([2]; peak plasma concentration 900 ng/ml, lasts for many hours): profound reductions in blood pressure
- inhibition of carageenan-induced inflammation [3]: 25%
- effect on blood pressure [4]: no significant effect
- effect on heart rate [4]: no significant effect
- effect on blood pressure ([5]; 62.4 and 624 μg/kg i.p.): without affecting blood pressure
- inhibition of carrageenan (CGN) induced inflammation (paw volume) ([5]; 62.4 and 624 μg/kg i.p., given at the same time as carrageenan, versus indomethacin 3 mg/kg po): comparable efficacy to indomethacin
- plasma concentration at which profound anti-inflammatory activity is seen ([5]; plasma concentration): ≤ 0.2 µM
